Among the data in US7462615B2, “Inhibitors of cysteine proteases, the pharmaceutical compositions thereof and their therapeutic applications” (Hybrigenics SA, priority 2005, dated 2008) are IC50 values, retold here.

For one assay, the target named is T1, USP5 (Homo sapiens, UniProt P45974).
T1 sequence (P45974 1-858): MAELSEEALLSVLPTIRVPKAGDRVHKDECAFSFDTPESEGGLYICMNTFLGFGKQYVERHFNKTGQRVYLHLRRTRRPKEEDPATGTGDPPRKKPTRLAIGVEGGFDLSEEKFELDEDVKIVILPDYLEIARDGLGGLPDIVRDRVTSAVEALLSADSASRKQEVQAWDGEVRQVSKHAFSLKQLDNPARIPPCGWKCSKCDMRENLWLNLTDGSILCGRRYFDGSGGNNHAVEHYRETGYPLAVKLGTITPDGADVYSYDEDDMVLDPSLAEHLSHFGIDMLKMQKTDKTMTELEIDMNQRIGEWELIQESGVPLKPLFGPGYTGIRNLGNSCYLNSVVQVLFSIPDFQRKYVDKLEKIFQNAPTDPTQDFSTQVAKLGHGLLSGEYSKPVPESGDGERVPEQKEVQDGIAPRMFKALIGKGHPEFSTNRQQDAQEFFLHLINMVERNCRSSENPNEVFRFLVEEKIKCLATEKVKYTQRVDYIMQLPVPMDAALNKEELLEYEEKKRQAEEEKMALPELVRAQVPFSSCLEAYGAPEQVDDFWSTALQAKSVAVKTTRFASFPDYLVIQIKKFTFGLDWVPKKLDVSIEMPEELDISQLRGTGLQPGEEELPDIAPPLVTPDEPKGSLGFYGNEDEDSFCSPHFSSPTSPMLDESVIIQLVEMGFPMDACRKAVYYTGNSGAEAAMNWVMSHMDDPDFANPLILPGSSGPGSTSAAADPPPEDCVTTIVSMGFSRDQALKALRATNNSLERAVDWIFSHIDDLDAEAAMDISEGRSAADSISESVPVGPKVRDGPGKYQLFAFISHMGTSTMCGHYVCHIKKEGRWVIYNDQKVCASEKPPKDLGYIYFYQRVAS
The experiment in a line: USP5 Activity Assay. It counts as biochemical. As to conditions: 400 nM Ub-AMC; 300 pM enzyme; pre-incubated 30 minutes at 25° C., 60 minutes at 37° C.; sigmoidal fit; read-out: USP 5 (Inhibition of cysteine protease activities). Here is the method: USP5 was diluted in USP buffer (50 mM Tris HCl; 0.5 mM EDTA; 5 mM DTT; 0.01% Triton X-100; Bovine Serum Albumin 0.05 mg.ml^−1 pH 7.6). Compounds stocks (100 mM) were stored at −20° C. in DMSO.
(§1) Reactions were performed as duplicates in Black LJL 96 well plates (HE microplates; Molecular Devices; 20 μl final reaction volume). The substrate concentration for USP5 was 400 nM Ub-AMC (Boston Biochem). The concentrations of the enzyme (USP5) in specificity assays was 300 pM. The concentrations were determined in order to perform specificity assays under initial velocities at fixed substrate concentration. Compounds were pre-incubated with enzymes for 30 minutes at 25° C. Reactions were initiated by addition of substrate to the plates containing the enzymes (+/− compounds) diluted in assay buffer. Reactions were incubated for 60 minutes at 37° C. Reactions were stopped by adding acetic acid (100 mM final). Readings were performed on a Pherastar Fluorescent Reader (BMG). λ Emission 380 nm; λ Excitation=460 nm. Data (mean values +/− standard deviation) were analyzed as % of control (no compound) and plotted as percentage versus the Log of the compound concentration using GraphPad (Prism). Data were fitted to a sigmoidal model (variable slope).

The target of a further assay is T2, USP7 (Homo sapiens, UniProt Q93009).
T2 construct: His tag (from vector pFastBac-HT) (N); made in house; host or cells: Sf9 or High Five insect cells (baculovirus)
T2 sequence (Q93009 whole entry): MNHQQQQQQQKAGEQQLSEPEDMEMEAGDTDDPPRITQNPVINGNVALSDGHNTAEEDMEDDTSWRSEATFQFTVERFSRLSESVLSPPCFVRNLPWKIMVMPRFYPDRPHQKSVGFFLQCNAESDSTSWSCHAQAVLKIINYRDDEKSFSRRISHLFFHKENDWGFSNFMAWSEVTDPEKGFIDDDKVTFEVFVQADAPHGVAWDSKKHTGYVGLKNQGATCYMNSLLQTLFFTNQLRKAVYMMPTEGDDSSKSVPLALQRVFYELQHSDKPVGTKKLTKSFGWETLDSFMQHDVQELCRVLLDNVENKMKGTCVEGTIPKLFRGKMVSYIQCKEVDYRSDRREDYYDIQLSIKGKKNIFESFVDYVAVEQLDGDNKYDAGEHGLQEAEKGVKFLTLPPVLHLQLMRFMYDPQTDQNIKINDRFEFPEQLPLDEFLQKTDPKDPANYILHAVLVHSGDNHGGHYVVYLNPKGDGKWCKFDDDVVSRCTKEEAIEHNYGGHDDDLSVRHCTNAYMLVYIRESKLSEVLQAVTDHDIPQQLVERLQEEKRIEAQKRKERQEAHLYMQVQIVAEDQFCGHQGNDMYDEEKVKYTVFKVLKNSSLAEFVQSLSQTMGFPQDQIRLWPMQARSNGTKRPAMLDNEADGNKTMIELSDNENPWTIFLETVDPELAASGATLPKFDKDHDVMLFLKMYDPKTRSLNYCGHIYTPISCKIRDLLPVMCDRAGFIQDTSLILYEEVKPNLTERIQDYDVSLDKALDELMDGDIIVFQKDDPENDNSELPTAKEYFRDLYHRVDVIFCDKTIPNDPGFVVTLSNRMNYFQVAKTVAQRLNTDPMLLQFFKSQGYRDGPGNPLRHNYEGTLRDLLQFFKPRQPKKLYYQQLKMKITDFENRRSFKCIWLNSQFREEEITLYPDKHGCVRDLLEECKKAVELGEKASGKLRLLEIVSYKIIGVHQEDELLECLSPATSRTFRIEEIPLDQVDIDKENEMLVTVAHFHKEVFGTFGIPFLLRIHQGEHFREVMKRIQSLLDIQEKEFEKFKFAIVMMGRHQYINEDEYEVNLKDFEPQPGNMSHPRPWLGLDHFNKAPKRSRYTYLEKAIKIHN
The experiment in a line: USP7 Activity Assay. It counts as biochemical. As to conditions: 400 nM Ub-AMC; 152 pM enzyme; pre-incubated 30 minutes at 25° C., 60 minutes at 37° C.; sigmoidal fit; read-out: USP 7 (Inhibition of cysteine protease activities).
Text: The cDNA encoding USP7 was obtained by PCR amplification from placenta mRNA. USP7 cDNA was subcloned by PCR into a baculovirus expression vector (pFastBac-HT; Invitrogen). A cDNA encoding a mutated USP7 was generated by mutagenic PCR. The corresponding protein encodes a cysteine to alanine substitution at residue 223. The sequences were ascertained by sequencing of the entire open reading frame. Bacmids encoding USP7 were generated following DH10bac transposition. The corresponding bacmids were transfected into insect cells (Sf9). Viruses were recovered from culture supernatant and amplified twice. Insect cells (Sf9 or High Five; Invitrogen) were infected for 72 hours. Total cell lysates were harvested and lyzed in lysis buffer (Tris HCl 50 mM pH7.6; 0.75% NP40; 500 mM NaCl; 10% glycerol; 1 mM DTT; 10 mM imidazole; Protease Inhibitor. Cocktail; AEBSF
20 μg.ml^−1; Aprotinin 10 μg.ml^−1). Proteins were affinity purified on metal affinity resins (Talon Metal affinity resin; BD Biosciences). Bound materials were extensively washed in wash buffer (50 mM Sodium Phosphate pH7.0; 300 mM NaCl; 10 mM imidazole; 0.5% Triton X-100; 10% glycerol) and eluted from the resin in 250 mM imidazole-containing wash buffer. Proteins were dialyzed in dialysis buffer (Tris HCl pH 7.6 20 mM; NaCl 200 mM; DTT 1 mM; EDTA 1 mM; 10% Glycerol). Proteins purifications were analyzed on 4-12% NuPAGE (Invitrogen).
USP7 was diluted in USP buffer (50 mM Tris HCl; 0.5 mM EDTA; 5 mM DTT; 0.01% Triton X-100; Bovine Serum Albumin 0.05 mg.ml^−1 pH7.6). Compounds stocks (100 mM) were stored at −20° C. in DMSO. Compounds were tested at the following final concentrations: 100 μM; 33.3 μM; 11.1 μM; 3.7 μM; 1.23 μM; 412 nM; 137 nM; 45.7 nM; 15.2 nM; 5 nM.
as §1, with “USP7” for “USP5”, “Ub-AMC (Chem. Biol., 2003, 10, p. 837-846)” for “Ub-AMC”, “(USP7)” for “(USP5)”, “152” for “300”, “(+/−compounds)” for “(+/− compounds)”, “+/−standard” for “+/− standard”

Some results are limits rather than exact numbers.

Turning to “6-(7)-Chloro-1-methyl-2,3,4,10,10a-pentaaza-cyclopenta[b]fluoren-9-one [Example 3/A]”, the IC50 at USP5 stood at 1.54 µM; on USP7, 2.8 µM. On the same counts, the results for `Cc1nnc2nc3c(nn12)C(=O)c1ccccc1-3` [Example 1b/A, 1-Methyl-2,3,4,10,10a-pentaaza-cyclopenta[b]fluoren-9-one] are 7.6 µM and 16.7 µM. With `Cc1nnc2nc3c(nn12)-c1ccccc1C3=O` [Example 1b/B, 3-Methyl-1,2,3a,4,10-pentaaza-cyclopenta[b]fluoren-9-one], on USP7, the IC50 is 0.55 µM. For the molecule `Nc1nnc2nc3c(nn12)C(=O)c1ccccc1-3` [Example 1c/A, 1-Amino-2,3,4,10,10a-pentaaza-cyclopenta[b]fluoren-9-one], the figures for the IC50 on USP5 and on USP7 were 2.8 µM and 15.3 µM, respectively. With `Nc1nnc2nc3c(nn12)-c1ccccc1C3=O` [Example 1c/B, 3-Amino-1,2,3a,4,10-pentaaza-cyclopenta[b]fluoren-9-one], the IC50 at USP7 came out at 0.7 µM. Take `CCc1nnc2nc3c(nn12)C(=O)c1ccccc1-3` [Example 1d/A, 1-Ethyl-2,3,4,10,10a-pentaaza-cyclopenta[b]fluoren-9-one]: the IC50 at USP5 was 3.23 µM; on USP7, 16.5 µM. On to `CCc1nnc2nc3c(nn12)-c1ccccc1C3=O` [Example 1d/B, 3-Ethyl-1,2,3a, 4,10-pentaaza-cyclopenta[b]fluoran-9-one], for which the IC50 at USP7 came to 0.225 µM.

For `CCCc1nnc2nc3c(nn12)C(=O)c1ccccc1-3` [Example 1e/A, 1-Propyl-2,3,4,10,10a-pentaaza-cyclopenta[b]fluoren-9-one], the IC50 on USP5 is more than 100 µM. Take `CCCc1nnc2nc3c(nn12)-c1ccccc1C3=O` [Example 1e/B, 3-Propyl-1,2,3a, 4,10-pentaaza-cyclopenta[b]fluoren-9-one]: on USP7, the IC50 was 0.662 µM.

As to `CCCCc1nnc2nc3c(nn12)C(=O)c1ccccc1-3` [Example 1f/A, 1-Butyl-2,3,4,10,10a-pentaaza-cyclopenta[b]fluoren-9-one], the values for the IC50 at USP5 and at USP7 were 3.9 µM and 23 µM, respectively. `CCCCc1nnc2nc3c(nn12)-c1ccccc1C3=O` [Example 1f/B, 3-Butyl-1,2,3a,4,10-pentaaza-cyclopenta[b]fluoren-9-one]: the values for the IC50 at USP5 and on USP7 were 0.237 µM and 0.604 µM, respectively. For `CC(C)Cc1nnc2nc3c(nn12)C(=O)c1ccccc1-3` [Example 1g/A, 1-Isobutyl-2,3,4,10,10a-pentaaza-cyclopenta[b]fluoren-9-one], on USP5, the IC50 was more than 100 µM. Take `CC(C)Cc1nnc2nc3c(nn12)-c1ccccc1C3=O` [Example 1g/B, 3-Isobutyl-1,2,3a,4,10-pentaaza-cyclopenta[b]fluoren-9-one]: the IC50 at USP7 was 0.789 µM. For the molecule `O=C1c2ccccc2-c2nc3nnc(CO)n3nc21` [Example 1h/A, 1-Hydroxymethyl-2,3,4,10,10a-pentaaza-cyclopenta[b]fluoren-9-one], the IC50 at USP5 was 2.5 µM; on USP7 it was 9.7 µM.

For the molecule `O=C1c2ccccc2-c2nn3c(CO)nnc3nc21` [Example 1h/B], the IC50 at USP7 is 1.61 µM.

Regarding `COCc1nnc2nc3c(nn12)C(=O)c1ccccc1-3` [Example 1i/A, 1-Methoxymethyl-2,3,4,10,10a-pentaaza-cyclopenta[b]fluoren-9-one], the IC50 at USP5 is more than 100 µM.

Turning to `COCc1nnc2nc3c(nn12)-c1ccccc1C3=O` [Example 1i/B, 3-Methoxymethyl-1,2,3a, 4,10-pentaaza-cyclopenta[b]fluoren-9-one], the IC50 on USP5 is 0.487 µM; at USP7, 0.461 µM. With `O=C1c2ccccc2-c2nn3c(C4CC4)nnc3nc21` [Example 1j/B, 3-Cyclopropyl-1,2,3a,4,10-pentaaza-cyclopenta[b]fluoren-9-one], the IC50 on USP7 was determined as 0.207 µM. Still for that read-out and setting: with `O=C1c2ccccc2-c2nc3nnc(Cc4ccccc4)n3nc21` [Example 1k/A, 1-Benzyl-2,3,4,10,10a-pentaaza-cyclopenta[b]fluoren-9-one] the figure was 3.3 µM; with `O=C1c2ccccc2-c2nn3c(Cc4ccccc4)nnc3nc21` [Example 1k/B, 3-Benzyl-1,2,3a,4,10-pentaaza-cyclopenta[b]fluoren-9-one], 0.425 µM. For `Cc1nnc2nc3c(nn12)-c1ccc(Cl)cc1C3=O` [Example 3/B, 7-Chloro-3-methyl-1,2,3a, 4,10-pentaaza-cyclopenta[b]fluoren-9-one], the IC50 on USP5 stood at 0.26 µM; on USP7, 0.522 µM. As for `Cn1nc2nc3c(nc2n1)-c1ccccc1C3=O` [Example 4a, 2-Methyl-2H-1,2,3,4,10-pentaaza-cyclopenta[b]fluoren-9-one], the IC50 on USP5 turned out to be 23 µM; on USP7 it was 51 µM.
